Measurements: US9499538B2, “Estrogen receptor modulators and uses thereof” (Seragon Pharmaceuticals, Inc., priority 2012, dated 2016)

Key:
MCF-7 cells = test: Breast Cancer Cell Viability Assays (MCF-7, CellTiter-Glo); type: cell-based; settings: 5 days' compound exposure; for IC50: Homo sapiens, MCF7, 120 h
Method in brief: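 Percent viability, background-subtracted against untreated wells, was taken from CellTiter-Glo luminescence after 5 days' exposure of MCF-7 cells. Compounds were tested at eleven semilog concentrations, final 0.3–0.000003 μM, in RPMI containing 10% FBS.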

ER-α in MCF-7 cells = target: T1, ER-α in MCF-7 cells (Homo sapiens, UniProt P03372); test: Breast Cancer Cell ER-α In Cell Western Assay (SP1); type: cell-based; settings: 4 or 24 hr post compound addition; for Emax: MCF7, SP1 antibody, read-out: ER-α In Cell Western Assay (SP1) Max Response; for DC50: SP1 antibody, read-out: ER-α In Cell Western Assay (SP1) IC50
T1 construct: endogenous in cells; host or cells: MCF-7
T1 sequence (P03372 1-595): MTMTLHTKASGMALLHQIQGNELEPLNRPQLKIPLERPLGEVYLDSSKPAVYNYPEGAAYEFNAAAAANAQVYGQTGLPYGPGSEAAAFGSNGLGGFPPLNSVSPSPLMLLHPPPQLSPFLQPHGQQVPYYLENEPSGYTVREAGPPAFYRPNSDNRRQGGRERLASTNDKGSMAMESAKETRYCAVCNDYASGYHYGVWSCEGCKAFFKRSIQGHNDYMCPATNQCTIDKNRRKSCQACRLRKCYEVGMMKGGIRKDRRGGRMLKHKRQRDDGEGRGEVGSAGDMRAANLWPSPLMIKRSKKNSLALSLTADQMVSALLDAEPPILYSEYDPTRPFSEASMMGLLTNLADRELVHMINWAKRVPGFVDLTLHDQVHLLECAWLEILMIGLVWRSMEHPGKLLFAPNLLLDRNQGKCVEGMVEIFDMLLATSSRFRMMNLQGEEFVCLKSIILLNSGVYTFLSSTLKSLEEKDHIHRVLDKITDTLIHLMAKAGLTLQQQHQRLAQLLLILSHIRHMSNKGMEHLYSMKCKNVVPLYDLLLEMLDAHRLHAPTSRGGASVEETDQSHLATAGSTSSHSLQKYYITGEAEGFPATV
Method in brief: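 ER-α levels quantified by in-cell western: SP1 signal normalised to DRAQ5 DNA stain, relative to untreated cells (% ER). Compounds at 0.3–0.000003 μM final, 11-point semilog series, 4 or 24 h exposure of MCF-7 cells grown in charcoal-stripped serum.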

SMILES | MCF7 Viability Assay Max Response (MCF-7 cells) | IC50 (MCF-7 cells) | Emax (ER-α in MCF-7 cells) | DC50 (ER-α in MCF-7 cells)
Cc1cncc(/C(=C(\c2ccc(/C=C/C(=O)O)cc2)c2ccc3[nH]nc(F)c3c2)C2CCC2)c1 [Example 129, (E)-3-(4-((E)-2-Cyclobutyl-1-(3-fluoro-1H-indazol-5-yl)-2-(5-methylpyridin-3-yl)vinyl)phenyl)acrylic acid] | ++ (++ = a single % value ≧ 40%) | ≤ 100 nM | ≥ 40% | ≤ 100 nM
O=C(O)/C=C/c1ccc(/C(=C(\c2cncc(Cl)c2)C2CCC2)c2ccc3[nH]nc(F)c3c2)cc1 [Example 130, (E)-3-(4-((E)-2-(5-Chloropyridin-3-yl)-2-cyclobutyl-1-(3-fluoro-1H-indazol-5-yl)vinyl)phenyl)acrylic acid] | ++ (++ = a single % value ≧ 40%) | ≤ 100 nM | ≥ 40% | ≤ 100 nM
O=C(O)/C=C/c1ccc(/C(=C(\c2cncc(F)c2)C2CCC2)c2ccc3[nH]nc(F)c3c2)cc1 [Example 131, (E)-3-(4-((E)-2-Cyclobutyl-1-(3-fluoro-1H-indazol-5-yl)-2-(5-fluoropyridin-3-yl)vinyl)phenyl)acrylic acid] | ++ (++ = a single % value ≧ 40%) | ≤ 100 nM | ≥ 40% | ≤ 100 nM
COc1cncc(/C(=C(\c2ccc(/C=C/C(=O)O)cc2)c2ccc3[nH]nc(F)c3c2)C2CCC2)c1 [Example 132, (E)-3-(4-((E)-2-Cyclobutyl-1-(3-fluoro-1H-indazol-5-yl)-2-(5-methoxypyridin-3-yl)vinyl)phenyl)acrylic acid] | ++ (++ = a single % value ≧ 40%) | ≤ 100 nM | ≥ 40% | ≤ 100 nM
COc1cc(C)ncc1/C(=C(\c1ccc(/C=C/C(=O)O)cc1)c1ccc2[nH]nc(F)c2c1)C1CCC1 [Example 133, (E)-3-(4-((E)-2-Cyclobutyl-1-(3-fluoro-1H-indazol-5-yl)-2-(4-methoxy-6-methylpyridin-3-yl)vinyl)phenyl)acrylic acid] | ++ (++ = a single % value ≧ 40%) | ≤ 100 nM | ≥ 40% | ≤ 100 nM
Cc1nc(/C=C/C(=O)O)ccc1/C(=C(\c1ccccc1)C1CCC1)c1ccc2[nH]nc(F)c2c1 [Example 134, (E)-3-(5-((Z)-2-Cyclobutyl-1-(3-fluoro-1H-indazol-5-yl)-2-phenylvinyl)-6-methylpyridin-2-yl)acrylic acid] | ++ (++ = a single % value ≧ 40%) | ≤ 100 nM | ≥ 40% | ≤ 100 nM
Cc1cc(/C(=C(\c2ccccc2)C2CCC2)c2ccc3[nH]nc(F)c3c2)cnc1/C=C/C(=O)O [Example 135, (E)-3-(5-((Z)-2-Cyclobutyl-1-(3-fluoro-1H-indazol-5-yl)-2-phenylvinyl)-3-methylpyridin-2-yl)acrylic acid] | ++ (++ = a single % value ≧ 40%) | > 100 nM | ≥ 40% | ≤ 100 nM
COc1ncc(/C(=C(\c2ccc(/C=C/C(=O)O)cc2)c2ccc3[nH]nc(F)c3c2)C2CCC2)cc1Cl [Example 136, (E)-3-(4-((E)-2-(5-Chloro-6-methoxypyridin-3-yl)-2-cyclobutyl-1-(3-fluoro-1H-indazol-5-yl)vinyl)phenyl)acrylic acid] | ++ (++ = a single % value ≧ 40%) | ≤ 100 nM | ≥ 40% | ≤ 100 nM
COc1ncc(/C(=C(\c2ccc(/C=C/C(=O)O)cc2)c2ccc3[nH]nc(F)c3c2)C2CCC2)cc1F [Example 137, (E)-3-(4-((E)-2-Cyclobutyl-1-(3-fluoro-1H-indazol-5-yl)-2-(5-fluoro-6-methoxypyridin-3-yl)vinyl)phenyl)acrylic acid] | ++ (++ = a single % value ≧ 40%) | ≤ 100 nM | ≥ 40% | ≤ 100 nM
COc1ccc(/C(=C(\c2ccc(/C=C/C(=O)O)cc2)c2ccc3[nH]nc(F)c3c2)C2CCC2)cn1 [Example 138, (E)-3-(4-((E)-2-Cyclobutyl-1-(3-fluoro-1H-indazol-5-yl)-2-(6-methoxypyridin-3-yl)vinyl)phenyl)acrylic acid] | ++ (++ = a single % value ≧ 40%) | ≤ 100 nM | ≥ 40% | ≤ 100 nM
CC/C(=C(/c1ccc(/C=C/C(=O)O)cc1)c1cccc2[nH]nc(F)c12)c1cnc(OC)cc1C [Example 139, (E)-3-(4-((E)-1-(3-Fluoro-1H-indazol-4-yl)-2-(6-methoxy-4-methylpyridin-3-yl)but-1-en-1-yl)phenyl)acrylic acid] | ++ (++ = a single % value ≧ 40%) | ≤ 100 nM | ≥ 40% | ≤ 100 nM
COc1cc(C)c(/C(=C(/c2ccc3[nH]nc(F)c3c2)c2ccc(/C=C/C(=O)O)nc2C)C2CCC2)cn1 [Example 140, (E)-3-(5-((Z)-2-Cyclobutyl-1-(3-fluoro-1H-indazol-5-yl)-2-(6-methoxy-4-methylpyridin-3-yl)vinyl)-6-methylpyridin-2-yl)acrylic acid] | ++ (++ = a single % value ≧ 40%) | ≤ 100 nM | ≥ 40% | ≤ 100 nM
O=C(O)/C=C/c1ccc(/C(=C(\c2ccccn2)C2CCC2)c2ccc3[nH]nc(F)c3c2)cc1 [Example 141, (E)-3-(4-((E)-2-Cyclobutyl-1-(3-fluoro-1H-indazol-5-yl)-2-(pyridin-2-yl)vinyl)phenyl)acrylic acid] | ++ (++ = a single % value ≧ 40%) | ≤ 100 nM | ≥ 40% | ≤ 100 nM
O=C(O)/C=C/c1ccc(/C(=C(\c2ncccc2F)C2CCC2)c2ccc3[nH]nc(F)c3c2)cc1 [Example 142, (E)-3-(4-((E)-2-Cyclobutyl-1-(3-fluoro-1H-indazol-5-yl)-2-(3-fluoropyridin-2-yl)vinyl)phenyl)acrylic acid] | ++ (++ = a single % value ≧ 40%) | ≤ 100 nM | ≥ 40% | ≤ 100 nM
O=C(O)/C=C/c1ccc(/C(=C(\c2ncccc2Cl)C2CCC2)c2ccc3[nH]nc(F)c3c2)cc1 [Example 143, (E)-3-(4-((E)-2-(3-Chloropyridin-2-yl)-2-cyclobutyl-1-(3-fluoro-1H-indazol-5-yl)vinyl)phenyl)acrylic acid] | ++ (++ = a single % value ≧ 40%) | ≤ 100 nM | ≥ 40% | ≤ 100 nM
Cc1cccnc1/C(=C(\c1ccc(/C=C/C(=O)O)cc1)c1ccc2[nH]nc(F)c2c1)C1CCC1 [Example 144, (E)-3-(4-((E)-2-Cyclobutyl-1-(3-fluoro-1H-indazol-5-yl)-2-(3-methylpyridin-2-yl)vinyl)phenyl)acrylic acid] | ++ (++ = a single % value ≧ 40%) | ≤ 100 nM | ≥ 40% | ≤ 100 nM
O=C(O)/C=C/c1ccc(/C(=C(\c2ncccc2C(F)(F)F)C2CCC2)c2ccc3[nH]nc(F)c3c2)cc1 [Example 145, (E)-3-(4-((E)-2-Cyclobutyl-1-(3-fluoro-1H-indazol-5-yl)-2-(3-(trifluoromethyl)pyridin-2-yl)vinyl)phenyl)acrylic acid] | ++ (++ = a single % value ≧ 40%) | ≤ 100 nM | ≥ 40% | ≤ 100 nM
